This is an account of results in patent US7994318B2, “Coumarin derivatives useful as TNFα inhibitors” (Chugai Seiyaku Kabushiki Kaisha, priority 2000, dated 2011).

Bounds are passed on as bounds.

The first experiment relates to TNFα. Nature of the experiment: In vitro assay: TNFα ELISA of supernatants of LPS-stimulated human PBMC. Particulars: Homo sapiens, PBMC, human PBMC pretreated with drug 60 min, stimulated with LPS (E. coli O55:B5) 100 ng/mL, overnight culture, TNFα in supernatant by ELISA; read-out: 50% Inhibition of TNFα level (IC50). The class given is cell-based. The protocol: Enzyme-linked immunosorbent assays (ELISA) for TNFα can be performed in a conventional manner (Blood, 75, 40-47 (1990)). Human PBMC are isolated from heparinized venous blood obtained from healthy volunteers by Ficoll-Hypaque density centrifugation. The cells are cultured in RPMI1640 medium supplemented with 5% heat-inactivated fetal calf serum and antibiotics. PBMC (5×10E5 cells/mL) in 0.2 mL aliquot are pretreated with drugs in DMSO for 60 min at 37° C. in 96 well round-bottomed tissue culture plates. Thereafter, PBMC in the presence or absence of compound are stimulated with 1 mg/mL LPS from E. coli O55:B5 at a final concentration of 100 ng/mL. After overnight culture, the supernatants are harvested and assayed immediately for TNFα levels from each well. The concentration of TNFα in the supernatant is determined by human TNFα ELISA Kit according to the manufacture's directions.
Active compounds are characterized by the concentration of the compound that caused 50% inhibition of TNFα level (IC50).
The IC50 is the midpoint of a concentration-inhibition curve. As to `Cc1c(Cc2ccccc2)c(=O)oc2cc(OC(=O)N(C)C)ccc12` [Example 1, dimethyl carbamic acid 2-oxo-2H-3-benzyl-4-methyl-1-benzopyran-7-yl ester], the IC50 is 360 nM.
For `Cc1c(Cc2ccccc2)c(=O)oc2cc(OC(=O)N(C)C)c(Cl)cc12` [Example 2, dimethyl carbamic acid 2-oxo-2H-3-benzyl-4-methyl-6-chloro-1-benzopyran-7-yl ester], the IC50 is 90 nM.
With `COc1cc2c(C)c(Cc3ccccc3)c(=O)oc2cc1OC(=O)N(C)C` [Example 3, dimethyl carbamic acid 2-oxo-2H-3-benzyl-4-methyl-6-methoxy-1-benzopyran-7-yl ester], the IC50 stood at 580 nM.
For `CN(C)C(=O)Oc1ccc2c(CCO)c(Cc3ccccc3)c(=O)oc2c1` [Example 4, dimethyl carbamic acid 2-oxo-2H-3-benzyl-4-(2-hydroxylethyl)-1-benzopyran-7-yl ester], the IC50 was 2100 nM.
Regarding `CN(C)C(=O)Oc1ccc2c(CC(O)c3ccccn3)c(Cc3ccccc3)c(=O)oc2c1` (stereo not shown) [Example 5, dimethyl carbamic acid 2-oxo-2H-3-benzyl-4-(2-(2-pyridyl)-2-hydroxylethyl)-1-benzopyran-7-yl ester], the IC50 was found to be 19300 nM.
Still for that read-out and setting: then `Cc1c(Cc2ccccc2)c(=O)oc2c(C=O)c(OC(=O)N(C)C)ccc12` [Example 6, dimethyl carbamic acid 2-oxo-2H-3-benzyl-4-methyl-8-formyl-1-benzopyran-7-yl ester], with 12900 nM; and `CCCc1c(Cc2ccc(F)cc2)c(=O)oc2cc(OC(=O)N(C)C)ccc12` [Example 7, dimethyl carbamic acid 2-oxo-2H-3-(4-fluorobenzyl)-4-n-propyl-1-benzopyran-7-yl ester], with 1170 nM; and `CN(C)C(=O)Oc1ccc2c(-c3cccnc3)c(Cc3ccccc3)c(=O)oc2c1` [Example 8, dimethyl carbamic acid 2-oxo-2H-3-benzyl-4-(m-pyridyl)-1-benzopyran-7-yl ester], with 18700 nM.
Same read-out and setting: the figure for `Cc1c(Cc2ccccc2)c(=O)oc2cc(OC(=O)N(C)C)c(C#N)cc12` [Example 9, dimethyl carbamic acid 2-oxo-2H-3-benzyl-4-methyl-6-cyano-1-benzopyran-7-yl ester] is 850 nM; for `Cc1c(Cc2ccccc2)c(=O)oc2cc(OC(=O)N(C)C)cc(F)c12` [Example 10, dimethyl carbamic acid 2-oxo-2H-3-benzyl-4-methyl-5-fluoro-1-benzopyran-7-yl ester] it is less than 600 nM; for `Cc1c(Cc2ccncc2)c(=O)oc2cc(OC(=O)N(C)C)c(Cl)cc12` [Example 11, dimethyl carbamic acid 2-oxo-2H-3-(p-pyridinylmethyl)-4-methyl-6-chloro-1-benzopyran-7-yl ester] it is 130 nM.
Regarding `CC(=O)Nc1cccc(Cc2c(C)c3cc(Cl)c(OC(=O)N(C)C)cc3oc2=O)c1` [Example 12, dimethyl carbamic acid 2-oxo-2H-3-(m-acetylamidobenzyl)-4-methyl-6-chloro1-benzopyran-7-yl ester], the IC50 is less than 600 nM.
`Cc1c(Cc2ccccc2)c(=O)oc2cc(SC(=O)N(C)C)ccc12` [Example 13, dimethyl thiocarbamic acid S-2-oxo-2H-3-benzyl-4-methyl-1-benzopyran-7-yl ester]: the IC50 came to 680 nM.

Still in this experiment, the particulars now being: human PBMC pretreated with drug 60 min, stimulated with LPS (E. coli O55:B5) 100 ng/mL, overnight culture, TNFα in supernatant by ELISA; listed as 14-4; read-out: 50% Inhibition of TNFα level (IC50).
On to `Cc1c(Cc2ccccc2)c(=O)oc2cc(OC(=O)N(C)C)cc(F)c12` [Example 10, dimethyl carbamic acid 2-oxo-2H-3-benzyl-4-methyl-5-fluoro-1-benzopyran-7-yl ester], for which the IC50 worked out at 440 nM.

The same experiment, now with this note: human PBMC pretreated with drug 60 min, stimulated with LPS (E. coli O55:B5) 100 ng/mL, overnight culture, TNFα in supernatant by ELISA; listed as 14-25; read-out: 50% Inhibition of TNFα level (IC50).
With `CC(=O)Nc1cccc(Cc2c(C)c3cc(Cl)c(OC(=O)N(C)C)cc3oc2=O)c1` [Example 12, dimethyl carbamic acid 2-oxo-2H-3-(m-acetylamidobenzyl)-4-methyl-6-chloro1-benzopyran-7-yl ester], the half-maximal inhibitory concentration (IC50) was found to be 310 nM.

The experiment is the same for the next values; noted with them: human PBMC pretreated with drug 60 min, stimulated with LPS (E. coli O55:B5) 100 ng/mL, overnight culture, TNFα in supernatant by ELISA; read-out: 50% Inhibition of TNFα level (IC50).
For the compound `Cc1c(Cc2cccc([N+](=O)[O-])c2)c(=O)oc2cc(OC(=O)N(C)C)cc(F)c12` [Example 14-5], the 50% inhibitory concentration (IC50) is 3700 nM.
Turning to `Cc1c(Cc2cccc(N)c2)c(=O)oc2cc(OC(=O)N(C)C)cc(F)c12` [Example 14-6], the half-maximal inhibitory concentration (IC50) worked out at 1600 nM.
Still for that read-out and setting: then `CC(=O)Nc1cccc(Cc2c(C)c3c(F)cc(OC(=O)N(C)C)cc3oc2=O)c1` [Example 14-7], with 1000 nM.
On the same count and under the same terms, then `CCOC(=O)CC(=O)Nc1cccc(Cc2c(C)c3c(F)cc(OC(=O)N(C)C)cc3oc2=O)c1` [Example 14-8], with 140 nM; and `CCc1cc2c(C)c(Cc3ccccc3)c(=O)oc2cc1OC(=O)N(C)C` [Example 14-9], with 4600 nM; and `Cc1c(Cc2ccccc2)c(=O)oc2cc(OC(=O)N(C)C)c(I)cc12` [Example 14-12], with 60 nM.
On the same count and under the same terms, then `Cc1cc2c(C)c(Cc3ccccc3)c(=O)oc2cc1OC(=O)N(C)C` [Example 14-14], with 400 nM.
For the compound `Cc1c(Cc2ccccc2)c(=O)oc2cc(OC(=O)N(C)C)c(Br)cc12` [Example 14-15], the half-inhibitory concentration (IC50) is 60 nM.
On to `Cc1c(Cc2ccccc2)c(=O)oc2cc(OC(=O)N(C)C)c(C=O)cc12` [Example 14-16], for which the concentration for half-maximal inhibition (IC50) was 9600 nM.
Still for that read-out and setting: then `Cc1c(Cc2ccccc2)c(=O)oc2cc(OC(=O)N(C)C)c([N+](=O)[O-])cc12` [Example 14-17], with 120 nM.
With `Cc1c(Cc2ccccc2)c(=O)oc2cc(OC(=O)N(C)C)c(C#C[Si](C)(C)C)cc12` [Example 14-18], the 50% inhibitory concentration (IC50) came to 3900 nM.
On the same count and under the same terms, then `Cc1c(Cc2ccccc2N)c(=O)oc2cc(OC(=O)N(C)C)c(Cl)cc12` [Example 14-20], with 490 nM; and `Cc1c(Cc2ccccc2[N+](=O)[O-])c(=O)oc2cc(OC(=O)N(C)C)c(Cl)cc12` [Example 14-21], with 3000 nM.
For `Cc1c(Cc2cccc([N+](=O)[O-])c2)c(=O)oc2cc(OC(=O)N(C)C)c(Cl)cc12` [Example 14-23], the 50% inhibitory concentration (IC50) is less than 600 nM.
The same measure, in the same setting: then `Cc1c(Cc2cccc(N)c2)c(=O)oc2cc(OC(=O)N(C)C)c(Cl)cc12` [Example 14-24], with 460 nM; and `CCOC(=O)CC(=O)Nc1cccc(Cc2c(C)c3cc(Cl)c(OC(=O)N(C)C)cc3oc2=O)c1` [Example 14-26], with 50 nM; and `Cc1c(Cc2ccccn2)c(=O)oc2cc(OC(=O)N(C)C)ccc12` [Example 14-30], with 6470 nM.
Same read-out and setting: the figure for `Cc1c(Cc2cccnc2)c(=O)oc2cc(OC(=O)N(C)C)ccc12` [Example 14-31] is 2200 nM; for `Cc1c(Cc2ccncc2)c(=O)oc2cc(OC(=O)N(C)C)ccc12` [Example 14-32] it is 1300 nM; for `Cc1c(Cc2cccnc2)c(=O)oc2c(C)c(OC(=O)N(C)C)ccc12` [Example 14-33] it is 8400 nM.
Consider `Cc1c(Cc2cccnc2)c(=O)oc2cc(OC(=O)N(C)C)c(Cl)cc12` [Example 14-35], for which the IC50 worked out at 450 nM.
Same read-out and setting: then `Cc1c(Cc2ccc(S(C)(=O)=O)cc2)c(=O)oc2cc(OC(=O)N(C)C)ccc12` [Example 14-43], with 6600 nM; and `COc1ccccc1Cc1c(C)c2ccc(OC(=O)N(C)C)cc2oc1=O` [Example 14-44], with 7500 nM.
The same measure, in the same setting: then `COc1cccc(Cc2c(C)c3ccc(OC(=O)N(C)C)cc3oc2=O)c1` [Example 14-45], with 3200 nM; and `COc1ccc(Cc2c(C)c3ccc(OC(=O)N(C)C)cc3oc2=O)cc1` [Example 14-46], with 5600 nM; and `Cc1c(Cc2ccc(C(C)C)cc2)c(=O)oc2cc(OC(=O)N(C)C)ccc12` [Example 14-52], with 11600 nM.
Still for that read-out and setting: then `Cc1c(Cc2cccc([N+](=O)[O-])c2)c(=O)oc2cc(OC(=O)N(C)C)ccc12` [Example 14-56], with 4500 nM.
Regarding `CC(=O)Nc1cccc(Cc2c(C)c3ccc(OC(=O)N(C)C)cc3oc2=O)c1` [Example 14-60], the IC50 amounted to 1100 nM.
With `CC(=O)Nc1ccc(Cc2c(C)c3ccc(OC(=O)N(C)C)cc3oc2=O)cc1` [Example 14-61], the IC50 is 5800 nM.
On the same count and under the same terms, the figure for `Cc1c(Cc2ccccc2N)c(=O)oc2cc(OC(=O)N(C)C)ccc12` [Example 14-64] is 2100 nM; for `Cc1c(Cc2cccc(N)c2)c(=O)oc2cc(OC(=O)N(C)C)ccc12` [Example 14-65] it is 2700 nM; for `Cc1c(Cc2ccc(N)cc2)c(=O)oc2cc(OC(=O)N(C)C)ccc12` [Example 14-66] it is 5200 nM.
In the case of `COC(=O)c1cccc(Cc2c(C)c3ccc(OC(=O)N(C)C)cc3oc2=O)c1` [Example 14-67], the concentration for half-maximal inhibition (IC50) was 1700 nM.
Same read-out and setting: the figure for `CCNC(=O)Nc1cccc(Cc2c(C)c3ccc(OC(=O)N(C)C)cc3oc2=O)c1` [Example 14-69] is 2400 nM; for `CCOC(=O)CNC(=O)Nc1cccc(Cc2c(C)c3ccc(OC(=O)N(C)C)cc3oc2=O)c1` [Example 14-71] it is 2400 nM.
The same measure, in the same setting: then `Cc1c(Cc2cccc(N(C)C)c2)c(=O)oc2cc(OC(=O)N(C)C)ccc12` [Example 14-72], with 1900 nM; and `CCc1c(Cc2ccccc2)c(=O)oc2cc(OC(=O)N(C)C)ccc12` [Example 14-73], with 1700 nM; and `CCc1c(Cc2ccccc2)c(=O)oc2cc(OC(=O)N(C)C)c(Cl)cc12` [Example 14-74], with 240 nM.
In the case of `CCc1c(Cc2cccc([N+](=O)[O-])c2)c(=O)oc2cc(OC(=O)N(C)C)ccc12` [Example 14-77], the IC50 came to 900 nM.
Take `CCc1c(Cc2cccc(N)c2)c(=O)oc2cc(OC(=O)N(C)C)ccc12` [Example 14-78]: the half-inhibitory concentration (IC50) worked out at 1300 nM.
